Earlier results on one substance are cited in PMC11372459 (Acta Pharmaceutica Sinica. B, 2024).

The series concerns Gram-positive bacteria.

With “Nisin (ITSISLCTPGCKTGALMGCNMKTATCHCSIHVSK; not fully specified; Lantibiotic nisin-A; UniProt P13068 24-57, looked up)”, the antibacterial spectrum entry is given as “specific activity against Gram-positive bacteria”.
